Results on 32 molecules are retold here after US20070010671A1, “Novel quinazoline derivatives and methods of treatment related to the use thereof” (priority 2003, published 2007).

Where a name gives a salt, the structure may show the parent alone.

The first experiment deals with MCH receptor (Homo sapiens, UniProt Q99705). Briefly: High throughput functional screening FLIPR/FDSS6000: inhibition of MCH-evoked intracellular Ca2+ changes. The experiment is classed as cell-based. Conditions: antagonist activity, 50 nM of MCH, FLIPR or FDSS; read-out: IC50. The text has this: Subsequently, a functional based assay was used to confirm the lead hits, referred to as FLIPR™ (the Fluorometric Imaging Plate Reader) and FDSS6000™ (Functional Drug Screening System). This assay utilized 3 non-endozenous, constitutively active version of the MCH receptor.
The FLIPR and FDSS assays are able to detect intracellular Ca^2+ concentration in cells, which can be utilized to assess receptor activation and determine whether a candidate compound is an, for example, antagonist, inverse agonist or agonist to a Gq-coupled receptor. The concentration of free Ca^2+ in the cytosol of any cell is extremely low, whereas its concentration in the extracellular fluid and endoplasmic reticulum (ER) is very high. Thus, there is a large gradient tending to drive Ca^2+ into the cytosol across both the plasma membrane and ER. The FLIPR™ and FDSS6000™ systems (Molecular Devices Corporation, HAMAMATSU Photonics K.K.) are designed to perform functional cell-based assays, such as the measurement of intracellular calcium for high-throughput screening, The measurement of fluorescent is associated with calcium release upon activation of the Gq-coupled receptors.
Fluorometric Imaging Plate Reader system was used to allow for rapid, kinetic measurements of intracellular fluorescence in 96 well microplates (or 384 well microplates). Simultaneous measurements of fluorescence in all wells can be made by FLIPR or FDSS6000™ every second with high sensitivity and precision. These systems are ideal for measuring cell-based functional assays such as monitoring the intracellular calcium fluxes that occur within seconds after activation of the Gq coupled receptor.
Briefly, the cells are seeded into 96 well at 5.5×10^4 cells/well with complete culture media (Dulbecco's Modified Eagle Medium with 10% fetal bovine serum, 2 mMi L-glutamine, 1 mM sodium pyruvate and 0.5 mg/ml G418, pH 7.4) for the assay next day. On the day of assay, the media is removed and the cells are incubated with 100 μl of loading buffer (4 μM Fluo4-AM in complete culture media containing 2.5 mM Probenicid, 0.5 mg/ml and 0.2% bovine serum albumin) in 5% CO2 incubator at 37° C. for 1 hr. The loading buffer is removed, and the cells are washed with wash buffer (Hank's Balanced Salt Solution containing 2.5 mM Probenicid, 20 mM HEPES, 0.5 mg/ml and 0.2% bovine serum albumm, pH 7.4)). One hundred fifty μl of wash buffer containing various concentrations of test compound is added to the cells, and the cells are incubated in 5% CO2 incubator at 37° C. for 3 min. Fifty μl of wash buffer containing various concentration of MCH are added to each well, and transient changes in [Ca^2+]i evokled bee MCH are monoitored using the FLIPR, or FDSS in 96 shell plates at Ex. 488 nm and Em. 530 nm for 290 second. When antagonist activity of compound is tested, 50 nM of MCH is used.
Use of FLIPR™ and FDSS6000™ can be accomplished by following manufacturer's instruction (Molecular Device Corporation and HAMAMATSU Photonics K.K.).
`CN(C)c1nc(N[C@H]2CC[C@@H](CNC(=O)Nc3cccc(Cl)c3Cl)CC2)nc2ccccc12` [Example 2, 1-(2,3-Dichloro-phenyl)-3-[cis-4-(4-dimethylamino-quinazolin-2-ylamino)-cyclohexylmethyl]-urea hydrochloride]: the IC50 came to 13 nM.

Staying with this experiment, now noted: class by percent of control at 10^-7 M or IC50.
For `Cc1ccc(NC(=S)NC[C@H]2CC[C@@H](Nc3nc(N(C)C)c4ccccc4n3)CC2)c(Br)c1` [compound 676], the class was 3 (Class 3: The value of percent of control at 10^−7 M was more than 60% or the value of IC50 was more than 200 nM.).

Turning to `CN(C)c1nc(N[C@H]2CC[C@@H](CNC(=S)Nc3cccc4ccccc34)CC2)nc2ccccc12` [compound 611], the class is reported as 3 (Class 3: The value of percent of control at 10^−7 M was more than 60% or the value of IC50 was more than 200 nM.). For the molecule `CCCCOc1ccc(NC(=O)NC[C@H]2CC[C@@H](Nc3nc(N(C)C)c4ccccc4n3)CC2)cc1` [compound 560], the class was 3 (Class 3: The value of percent of control at 10^−7 M was more than 60% or the value of IC50 was more than 200 nM.).

Turning to `Cc1noc(C)c1NC(=O)NC[C@H]1CC[C@@H](Nc2nc(N(C)C)c3ccccc3n2)CC1` [compound 774, N-[(cis-4-{[4-(dimethylamino)quinazolin-2-yl]amino}cyclohexyl)methyl]-N′-(3,5-dimethylisoxazol-4-yl)urea], the class is reported as 2 (Class 2: The value of percent of control at 10^−7 M was from 40% to 60% or the value of IC50 was from 50 nM to 200 nM.). As to `CN(C)c1nc(N[C@H]2CC[C@@H](CNC(=O)NCCc3cccs3)CC2)nc2ccccc12` [compound 757], the class is recorded as 3 (Class 3: The value of percent of control at 10^−7 M was more than 60% or the value of IC50 was more than 200 nM.). In the case of `CN(C)c1nc(N[C@H]2CC[C@@H](NC(=O)Nc3ccsc3)CC2)nc2ccccc12` [compound 344], the class is given as 3 (Class 3: The value of percent of control at 10^−7 M was more than 60% or the value of IC50 was more than 200 nM.).

For `COc1cc(OC)c(NC(=S)NC[C@H]2CC[C@@H](Nc3nc(N(C)C)c4ccccc4n3)CC2)cc1Cl` [compound 746], the class is given as 3 (Class 3: The value of percent of control at 10^−7 M was more than 60% or the value of IC50 was more than 200 nM.). Still for that read-out and setting: the value for `CN(C)c1nc(N[C@H]2CC[C@@H](NC(=S)Nc3c(Cl)cc(Cl)cc3Cl)CC2)nc2ccccc12` [compound 246, N-(cis-4-{[4-(dimethylamino)quinazolin-2-yl]amino}cyclohexyl)-N′-(2,4,6-trichlorophenyl)thiourea] was 1 (Class 1: The value of percent of control at 10^−7 M was less than 40% or the value of IC50 was less than 50 nM.); that for `CCCc1ccccc1NC(=O)NC[C@H]1CC[C@@H](Nc2nc(N(C)C)c3ccccc3n2)CC1` [compound 513, N-[(cis-4-{[4-(dimethylamino)quinazolin-2-yl]amino}cyclohexyl)methyl]-N′-(2-propylphenyl)urea] was 1 (Class 1: The value of percent of control at 10^−7 M was less than 40% or the value of IC50 was less than 50 nM.).

Still in this experiment, the particulars now being: class by percent of control at 10^-7 M or by IC50; read-out: class.
Regarding `CN(C)c1nc(N[C@H]2CC[C@@H](NC(=O)Nc3cc(C(F)(F)F)cc(C(F)(F)F)c3)CC2)nc2ccccc12` [compound 8], the IC50 was over 200 nM. Regarding `COc1ccc(Cl)cc1NC(=O)N[C@H]1CC[C@@H](Nc2nc(N(C)C)c3ccccc3n2)CC1` [compound 835], the IC50 is over 200 nM. Regarding `CCC[C@H]1CC[C@H](c2ccc(NC(=S)N[C@H]3CC[C@@H](Nc4nc(N(C)C)c5ccccc5n4)CC3)cc2)CC1` [compound 177], the IC50 is over 200 nM. On the same count and under the same terms, the value for `COc1cc(COC(=O)N[C@H]2CC[C@@H](Nc3nc(N(C)C)c4ccccc4n3)CC2)c([N+](=O)[O-])cc1OC` [compound 848] was under 50 nM; that for `Cc1ccc([N+](=O)[O-])c(NC(=O)N[C@H]2CC[C@@H](Nc3nc(N(C)C)c4ccccc4n3)CC2)c1C` [compound 73, N-(cis-4-{[4-(dimethylamino)quinazolin-2-yl]amino}cyclohexyl)-N′-(2,3-dimethyl-6-nitrophenyl)urea] was 50 to 200 nM. The same measure, in the same setting: the value for `COc1ccc(OC)c(NC(=O)N[C@H]2CC[C@@H](Nc3nc(N(C)C)c4ccccc4n3)CC2)c1` [compound 81] was 50 to 200 nM. With `Cc1ccc(Cl)c(NC(=O)N[C@H]2CC[C@@H](Nc3nc(N(C)C)c4ccccc4n3)CC2)c1` [compound 87], the IC50 is over 200 nM. On the same count and under the same terms, the value for `CN(C)c1nc(N[C@H]2CC[C@@H](NC(=O)Nc3ccc(Oc4ccccc4)cc3)CC2)nc2ccccc12` [compound 53, N-(cis-4-{[4-(dimethylamino)quinazolin-2-yl]amino}cyclohexyl)-N′-(4-phenoxyphenyl)urea] was under 50 nM; that for `CN(C)c1nc(N[C@H]2CC[C@@H](CNC(=O)Oc3ccc4ccccc4c3)CC2)nc2ccccc12` [compound 876] was over 200 nM. Same read-out and setting: under `CC(=O)c1ccc(NC(=O)N[C@H]2CC[C@@H](Nc3nc(N(C)C)c4ccccc4n3)CC2)cc1` [compound 6] stands over 200 nM; under `Cc1ccc(NC(=O)N[C@H]2CC[C@@H](Nc3nc(N(C)C)c4ccccc4n3)CC2)c(C)c1` [compound 80], over 200 nM; under `CN(C)c1nc(N[C@H]2CC[C@@H](CNC(=S)Nc3ccc(-n4cccn4)cc3)CC2)nc2ccccc12` [compound 814], over 200 nM. On the same count and under the same terms, the value for `CN(C)c1nc(N[C@H]2CC[C@@H](NC(=O)Nc3ccccc3)CC2)nc2ccccc12` [compound 52, N-(cis-4-{[4-(dimethylamino)quinazolin-2-yl]amino}cyclohexyl)-N′-phenylurea] was 50 to 200 nM; that for `CN(C)c1nc(N[C@H]2CC[C@@H](NC(=O)Nc3ccccc3C(F)(F)F)CC2)nc2ccccc12` [compound 55, N-(cis-4-{[4-(dimethylamino)quinazolin-2-yl]amino}cyclohexyl)-N′-[2-(trifluoromethyl)phenyl]urea] was under 50 nM.

Still in this experiment, the particulars now being: class by percent of control at 10^−7 M or by IC50; read-out: class.
Take `CN(C)c1nc(N[C@H]2CC[C@@H](NC(=O)c3cccnc3Oc3ccccc3Cl)CC2)nc2ccccc12` [Example 1031, 2-(2-chlorophenoxy)-N-(cis-4-{[4-(dimethylamino)quinazolin-2-yl]amino}cyclohexyl)nicotinamide]: the IC50 is under 50 nM. Same read-out and setting: under `CN(C)c1nc(N[C@H]2CC[C@@H](NC(=O)c3ccc(Oc4ccc(Br)cc4)nc3)CC2)nc2ccccc12` [Example 1061, 6-(4-bromophenoxy)-N-(cis-4-{[4-(dimethylamino)quinazolin-2-yl]amino}cyclohexyl)nicotinamide] stands over 200 nM. In the case of `CN(C)c1nc(N[C@H]2CC[C@@H](NC(=O)c3ccc(F)cc3)CC2)nc2cc(F)c(F)cc12` [Example 1207, N-(cis-4-{[4-(dimethylamino)-6,7-difluoroquinazolin-2-yl]amino}cyclohexyl)-4-fluorobenzamide], the IC50 is under 50 nM. With `CN(C)c1nc(N[C@H]2CC[C@@H](C(=O)NCc3cccc4ccccc34)CC2)nc2ccccc12` [Example 1154], the IC50 is under 50 nM.

On to `CN(C)c1nc(N[C@H]2CC[C@@H](NC(=O)c3ccc(Oc4ccccc4Br)nc3)CC2)nc2ccccc12` [Example 1052, 6-(2-bromophenoxy)-N-(cis-4-{[4-(dimethylamino)quinazolin-2-yl]amino}cyclohexyl)nicotinamide], for which the IC50 was over 200 nM.

For `COc1cccc(Oc2ncccc2C(=O)N[C@H]2CC[C@@H](Nc3nc(N(C)C)c4ccccc4n3)CC2)c1OC` [Example 1040, 2-(2,3-dimethoxyphenoxy)-N-(cis-4-{[4-(dimethylamino)quinazolin-2-yl]-amino}cyclohexyl)nicotinamide], the IC50 is under 50 nM.

As for `CN(C)c1nc(N[C@H]2CC[C@@H](NC(=O)c3cccnc3Oc3ccccc3F)CC2)nc2ccccc12` [Example 1030, N-(cis-4-{[4-(dimethylamino)quinazolin-2-yl]amino}cyclohexyl)-2-(2-fluorophenoxy)nicotinamide], the IC50 was under 50 nM. Same read-out and setting: under `COc1cc(CNC(=O)[C@H]2CC[C@@H](Nc3nc(N(C)C)c4cc(F)c(F)cc4n3)CC2)cc(OC)c1` [Example 993, cis-N-(3,5-dimethoxybenzyl)-4-{[4-(dimethylamino)-6,7-difluoroquinazolin-2-yl]amino}cyclohexanecarboxamide] stands 50 to 200 nM.
